# Reference: patent US11840686B2, “Modulation of prekallikrein (PKK) expression” (Ionis Pharmaceuticals, Inc., priority 2013, dated 2023)
# e = 2'-O-(2-methoxyethyl) (MOE); d = 2'-deoxy (DNA)
# Columns and labels:
# C1-INH mRNA = C1-INH mRNA in liver of mice treated with ISIS 461756 (Example 18); type: in vivo, mouse; settings: for Percent inhibition of C1-INH mRNA expression compared to the untreated PBS control: liver, all groups ISIS 461756 25 mg/kg/wk, pretreatment PBS or oligonucleotide 80 mg/kg/wk sc 3 weeks
# Description: (§1) Vascular permeability induced by ISIS 461756, an antisense oligonucleotide which targets murine C1 inhibitor mRNA, increases vascular permeability in mice and replicates the pathology of hereditary angioedema. The effect of ISIS 482584 on this model was evaluated.
# (§2) One group of 8 mice was treated with 40 mg/kg ISIS 482584 administered subcutaneously twice a week for 3 weeks (weekly dose of 80 mg/kg). A second group of 8 mice was treated with 40 mg/kg of the control oligonucleotide, ISIS 141923, administered subcutaneously twice a week for 3 weeks (weekly dose of 80 mg/kg). A third group of 8 mice was treated with PBS administered subcutaneously twice a week for 3 weeks. On day 14, all the groups were treated with 12.5 mg/kg ISIS 461756 administered subcutaneously twice a week for 3 weeks (weekly dose of 25 mg/kg). A control group of mice was treated with PBS administered subcutaneously twice a week for 3 weeks but was not administered ISIS 461756.
# (§3) At the end of the treatment period, all the groups were injected with 30 mg/kg of Evans Blue solution into the tail vein. The mice were sacrificed 30 min after the Evans Blue solution administration and colons, feet, ears, and intestines were harvested. The liver was also harvested for RNA analysis.
# (§4) RNA was isolated from the liver for RT-PCR analysis of C1-INH and PKK mRNAs. The primer probe set for C1-INH is RTS3218 (forward sequence […], designated herein as SEQ ID NO: 2234; reverse sequence […], designated herein as SEQ ID NO: 2235; probe sequence […], designated herein as SEQ ID NO: 2236). The primer probe set for PKK is RTS3287 (forward sequence […], designated herein as SEQ ID NO: 2237; reverse sequence […], designated herein as SEQ ID NO: 2238; probe sequence […], designated herein as SEQ ID NO: 2239). The results are presented in Table 79 as percent inhibition compared to the PBS control not treated with ISIS 461756.
# [1] = tested on: vascular permeability induced by ISIS 461756; test: C1-INH antisense oligonucleotide-induced vascular permeability, Evans Blue OD600 (Example 18); type: in vivo, mouse; settings: Evans Blue OD600; all groups ISIS 461756 25 mg/kg/wk; pretreatment PBS or oligonucleotide 80 mg/kg/wk
# Description: as §1, §2, §3
# The harvested tissues from the feet, colon, and intestines were placed in formamide solution overnight to leach out the Evans Blue dye. The formamide solution containing feet tissue was heated to 55° C. and left overnight. The color intensity of the dye-infused formamide solution was then measured at OD600 nm. The data is presented in Table 80 as percent increase or reduction compared to the PBS control not treated with ISIS 461756.
# PKK mRNA = PKK mRNA in liver of mice treated with ISIS 461756 (Example 18); type: in vivo, mouse; settings: liver; all groups ISIS 461756 25 mg/kg/wk; pretreatment PBS or oligonucleotide 80 mg/kg/wk sc 3 weeks
# Description: as §1, §2, §3, §4
# [2] = tested on: captopril and ISIS 461756-induced vascular permeability; test: Evans Blue vascular permeability in captopril and ISIS 461756-induced angioedema mouse models (Example 11); type: in vivo; settings: captopril Yes, ISIS 461756 Yes; ISIS oligonucleotides 40 mg/kg sc twice a week 4 weeks; HOE-140 30 μg ip
# Source text: Hereditary angioedema (HAE) is characterized by local swelling and increase in vascular permeability in subcutaneous tissues (Morgan, B. P. N. Engl. J. Med. 363: 581-83, 2010). It is caused by a deficiency of the C1 inhibitor, a protein of the complement system. Two mouse models were used in this study including an established mouse model of C1-INH deficiency and a captopril-induced edema model, both of which cause vascular permeability, a hallmark of HAE. Reversal of vascular permeability is accompanied by increased plasma levels of high molecular weight kininogen (HMWK).
# In the first model, angioedema was induced by treatment with Captopril, a known antihypertensive agent, which increases vascular permeability in mice and replicates the pathology of hereditary angioedema.
# In the second model, angioedema was induced by treatment with ISIS 461756, an antisense oligonucleotide which targets murine C1 inhibitor mRNA, which increases vascular permeability in mice and replicates the pathology of hereditary angioedema. ISIS 461756 (SEQ ID NO: 2245; […]) is a 5-10-5 MOE gapmer targeting nucleosides 1730-1749 of NM_009776.3 (SEQ ID NO: 2243).
# The effect of HOE-140 and ISIS 482584, an antisense oligonucleotide inhibitor of PKK, were evaluated in the Captopril and ISIS 461756-induced mouse models of vascular permeability. Some of the murine groups were treated with HOE-140, a selective antagonist of the bradykinin B2 receptor, which blocks vasodilation and vascular permeability (Cruden and Newby, Expert Opin. Pharmacol. 9: 2383-90, 2008). Other mice were treated with ISIS 482584, which inhibits PKK mRNA expression. The effect of treatment with HOE-140 was compared with the effect of treatment with ISIS 482584.
# Group 1 consisted of 4 C57BL/6J-Tyrc-2J mice treated with PBS administered subcutaneously twice a week for 4 weeks. No other treatment was administered to Group 1 which served as a control group to measure the basal level of vascular permeability.
# Group 2 consisted of 8 C57BL/6J-Tyrc-2J mice treated with PBS administered subcutaneously twice a week for 4 weeks. At the end of the treatment, the mice were intraperitoneally administered 20 μg of captopril. Group 2 served as a PBS control group for captopril-induced vascular permeability.
# (§5) Group 3 consisted of 8 C57BL/6J-Tyrc-2J mice treated with PBS administered subcutaneously twice a week for 4 weeks. On day 14, the mice were treated with 50 mg/kg of the antisense oligonucleotide targeting C1 inhibitor, ISIS 461756, administered subcutaneously twice a week for 2 weeks. At the end of the treatment period, the mice were intraperitoneally administered 20 μg of captopril. Group 3 served as a PBS control group for captopril and ISIS 461756-induced vascular permeability.
# Group 4 consisted of 8 C57BL/6J-Tyrc-2J mice treated with PBS administered subcutaneously twice a week for 4 weeks. On day 14, the mice were treated with 50 mg/kg of the antisense oligonucleotide targeting C1 inhibitor, ISIS 461756, administered subcutaneously twice a week for 2 weeks. At the end of the treatment period, the mice were intraperitoneally administered 20 μg of captopril. The mice were then also intraperitoneally administered 30 μg of HOE-140. Group 4 served as a positive control for inhibition of vascular permeability with HOE-140.
# as §5, with “5” for “3”, “40 mg/kg of control oligonucleotide ISIS 141923, a 5-10-5 MOE gapmer with no known murine target, ([…]; SEQ ID NO: 2246)” for “PBS”, “a” for “a PBS”, “permeability. […]” for “permeability.”
Substance,Percent inhibition of C1-INH mRNA expression compared to the untreated PBS control (C1-INH mRNA) [%],"C1-INH mRNA expression (C1-INH mRNA; mouse liver, 12.5 mg/kg ISIS 461756 s.c. twice a week)","Percent change in vascular permeability compared to the untreated PBS control, Colon [1] [%]","Percent change in vascular permeability compared to the untreated PBS control, Feet [1] [%]","Percent change in vascular permeability compared to the untreated PBS control, Intestines [1] [%]",Percent inhibition of PKK mRNA expression compared to the untreated PBS control (PKK mRNA) [%],"OD600 nm of Evans Blue dye, Colons [2]","OD600 nm of Evans Blue dye, Ears [2]","OD600 nm of Evans Blue dye, Feet [2]","OD600 nm of Evans Blue dye, Intestines [2]"
"ISIS 461756: 5-10-5 MOE gapmer which targets murine C1 inhibitor mRNA, AAAGTGGTTGATACCCTGGG; SEQ ID NO: 2245 (sugars from the 5' end e5 d10 e5, backbone and methylation of C not given here)",76,significantly reduced C1-INH mRNA expression,13,70,27,0,,,,
"ISIS 141923: control oligonucleotide, 5-10-5 MOE gapmer with no known murine target, CCTTCCCTGAAGGTTCCTCC; SEQ ID NO: 2246 (sugars from the 5' end e5 d10 e5, backbone and methylation of C not given here) [reference compound]",79,,2,80,14,0,0.44,0.08,0.14,0.29
